Assay results reported in patent US8173696B2, “Inhibitors of cysteine proteases and methods of use thereof” (Baylor University, priority 2007, dated 2012).

What was measured:
[1] = target: Cruzain (Trypanosoma cruzi, UniProt P25779); experiment: biochemical; format: biochemical; conditions: Table A; 0.1 nM cruzain, pH 5.50, 25° C., 10 μM Z-Phe-Arg-AMC
Description: Cruzain (0.1 nM) in 100 mM sodium acetate buffer (pH 5.50) containing 5 mM DTT was preincubated for 5 min at 25° C. with inhibitor.

[2] = target: T1, Human liver cathepsin L (Homo sapiens, UniProt P07711); experiment: Cathepsin L inhibition in vitro (Z-FR-AMC fluorescence); format: biochemical; conditions: Table A; 1 nM human liver cathepsin L, pH 5.5, 25° C., 50 μM Z-FR-AMC; read-out: Cat L IC50
T1 construct: from tissue; host or cells: human liver
T1 sequence (P07711 114-333): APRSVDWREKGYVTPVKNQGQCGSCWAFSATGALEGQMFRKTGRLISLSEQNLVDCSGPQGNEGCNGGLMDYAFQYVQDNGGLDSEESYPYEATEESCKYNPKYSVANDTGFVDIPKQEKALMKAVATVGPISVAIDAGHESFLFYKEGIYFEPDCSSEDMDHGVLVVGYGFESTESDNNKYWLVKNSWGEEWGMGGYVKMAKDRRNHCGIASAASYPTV
Description: Human liver cathepsin L (1 nM) was incubated in 50 mM sodium acetate buffer, pH 5.5 containing 1 mM EDTA, 2 mM DTT, 0.001% (v/v) brij 35 with potential inhibitors at 20 different concentrations (from 0.05 nM to 50 μM) at 25° C. for 5 minutes before 100 μL substrate (benzyloxycarbonyl-L-phenylalanyl-L-arginyl-7-amido-4-methylcoumarin, abbreviated as Z-FR-AMC, 50 μM in final assay condition) was added to the enzyme-inhibitor mixture; total volume was 200 μL. Controls were performed using enzyme alone, substrate alone, and enzyme with DMSO. […] Spectra were taken at 3-sec intervals for 3 minutes. IC50 values were determined by non-linear regression analysis using vo(inh)=VMAX/{1+10(logIC50−x)*Hillslope} and Prism software (GraphPad).

[3] = target: Cat B (Homo sapiens, UniProt P07858); experiment: Cathepsin B inhibition in vitro; format: biochemical; conditions: Table A; read-out: Cat B IC50
Description: For in vitro cysteine protease inhibition determinations, a compound's effectiveness can be given by an IC50 value. In these assays, the enzyme to be inhibited (e.g., a cruzain or cruzipain, a rhodesain, a brucipain, a congopain, a falcipain, CPB2.8 Delta CTE, a cathepsin-L, cathepsin-B, a cathepsin-H, a cathepsin-K, a cathepsin-S) is first incubated with varying concentrations (about 20-50,000 nM) of a test compound. To this is added a short peptide substrate of the enzyme of 1 to 10 amino acids, usually a di- or tri-peptide substrate, which is labeled with either a fluorogenic or chromogenic moiety. An exemplary chromogenic moiety is p-nitro-anilide (pNA). […] Exemplary peptide substrates include Phe-Arg, Arg-Arg, Phe-Arg-X (X=Ala, Arg), and Phe-X-Ser-Arg-Gln (X=Arg, 4-aminomethyl-phenylalanine (Arm), 4-aminomethyl-N-isopropyl-phenylalanin-e (laf), 4-piperidinyl-alanine (Ppa) or 4-aminocyclohexyl-alanine (Aca)). Cleavage of the labeled substrate induces a chromogenic or fluorescent signal that is measured using spectrophotometer or a spectrofluorometer, respectively. Signals induced in the presence of varying concentrations of test compound are measured in comparison to a positive control of enzyme and substrate and a negative control of enzyme in diluent (e.g., DMSO). Spontaneous cleavage of substrate is measured in controls with substrate alone. IC50 values are determined graphically using compound inhibitor concentrations in the linear portion of a plot of inhibition versus log [I].

[4] = system: cathepsin L; experiment: Inhibition of activated cathepsin L secreted in DU-145 cell conditioned media; format: cell-based; conditions: compound 20 μM, replicate samples a-c
Description: (§1) A prostrate carcinoma derived cell line (DU-145) was maintained in free phenol red DMEM supplemented with 10% fetal bovine serum, 1% glutamine, 1% glutamax, 1% Penicillin-Streptomycin and 1 mM sodium pyruvate, at 37° C. in an atmosphere of 95% air/5% CO2. DU145 was plated at 4×10^6 cells/10 cm Petri dish for dense, super confluent density. These cultures were incubated for 3 days before collection. Twenty-four hours prior to harvesting, cells were fed with serum-free media or serum-free media containing inhibitors at a final concentration of 20 μM. On the day of harvesting, the serum-free medium was collected for assay of Cathepsin L activity secreted in the medium. The cells were rinsed in cold PBS (pH 7.2) and collected in cold PBS containing […]. The cells were lysed using a Sonicator (Misonix 3000) at medium setting with pauses at 0° C. for temperature equilibration. Then the homogenate was centrifuged at 13,000×g for 20 min and the supernatant saved. […] Fluorescence was measured in a Fluoro Max 2 (Jobin Yvon) spectrofluorometer at an excitation wavelength of 355 nm and an emission wavelength of 460 nm. The substrate is hydrolyzed by cathepsin L and to a smaller extent by cathepsin B, therefore the activity is referred to as cathepsin L+B activity. Data analysis was performed using Prism software (GraphPad version 4). Data corresponding to cathepsin L activity (after activation) in cell conditioned media in the presence of Compound 14 (20 μM) is summarized in Table 3 below. Data corresponding to cathepsin L activity (after activation) in cell conditioned media in the presence of Compound 27 (20 μM) is summarized in Table 4 below.

[5] = system: cathepsin L; experiment: Inhibition of activated cathepsin L in DU-145 cell lysates; format: cell-based; conditions: DU-145 cell lysates preincubated for 24 h with compound, following removal of media, replicate samples a-c; for activity (cathepsin L activity after activation): control 6.93E−03; for cps (cathepsin L activity after activation): control 26950
Description: as §1, with “cell lysates preincubated for 24 h with” for “cell conditioned media in the presence of”, “14 and following the removal of media” for “14 (20 μM)”, “Table 5” for “Table 3”, “27 and following the removal of media” for “27 (20 μM)”, “Table 6” for “Table 4”

Chain of Cruzain (P25779 123-467): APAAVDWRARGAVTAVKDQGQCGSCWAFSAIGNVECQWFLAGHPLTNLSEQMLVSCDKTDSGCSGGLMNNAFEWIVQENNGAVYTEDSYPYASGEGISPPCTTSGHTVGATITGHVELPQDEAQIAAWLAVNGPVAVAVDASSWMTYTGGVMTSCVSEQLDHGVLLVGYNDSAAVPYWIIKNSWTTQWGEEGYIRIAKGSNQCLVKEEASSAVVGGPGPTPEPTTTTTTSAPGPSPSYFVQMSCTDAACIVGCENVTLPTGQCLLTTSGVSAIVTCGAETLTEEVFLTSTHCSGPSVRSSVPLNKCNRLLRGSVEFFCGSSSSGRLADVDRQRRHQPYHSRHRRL

What does the source list for NC(=S)NN=C(c1cccc(Br)c1)c1cccc(Br)c1 [Compound 14, Bis(3-bromophenyl) ketone thiosemicarbazone]?
IC50 [1]: 24 nM; IC50 [2]: 1.5 nM; IC50 [3]: > 3000 nM; activity (cathepsin L activity after activation) ([4]; control 1.50E−03, listed as 14a): 0.000186 µM/s; activity (cathepsin L activity after activation) ([4]; control 1.50E−03, listed as 14b): 0.000165 µM/s; activity (cathepsin L activity after activation) ([4]; control 1.50E−03, listed as 14c): 0.000127 µM/s; cps (cathepsin L activity after activation) ([4]; control 5848, listed as 14a): 722.5 cps; cps (cathepsin L activity after activation) ([4]; control 5848, listed as 14b): 641.2 cps; cps (cathepsin L activity after activation) ([4]; control 5848, listed as 14c): 495 cps; activity (cathepsin L activity after activation) ([5]; listed as 14a): 0.00161 µM/s; activity (cathepsin L activity after activation) ([5]; listed as 14b): 0.00144 µM/s; activity (cathepsin L activity after activation) ([5]; listed as 14c): 0.00129 µM/s; cps (cathepsin L activity after activation) ([5]; listed as 14a): 6259 cps; cps (cathepsin L activity after activation) ([5]; listed as 14b): 5608 cps; cps (cathepsin L activity after activation) ([5]; listed as 14c): 5003 cps
